The test system of data set [1] is RL (Transformed follicular). The data set can be described thus: Growth inhibition in vitro, 5 day exposure (XTT or Alamar blue). The data set is classed as cell-based. As to conditions: Homo sapiens, 120 h, 5 day drug exposure. Here is the method: (§1) A PDX preparation prepared in accordance with Example 1 and an MTX preparation were tested for cytotoxicity against a panel of five human lymphoma cell lines. Experiments were performed as described previously. (Sirotnak et al., Cancer Chemother. Pharmacol. 12: 18-25 (1984). In brief, 2.5 to 5×10^3 cells were plated per well in 96-well flat bottom plates. Drug was added in a 0.9% NaCl solution (pH 7.0) over a range of concentrations, and cells were continuously exposed to drug for 5 days. Colorimetric dye (XTT or Alamar blue) was added for an addition period of time (XTT dye, 6 hours, Alamar blue, 24 hours). Each plate was then read on an automated plate reader at 590 nm. The percentage of inhibition was calculated as growth of cells exposed to drug divided by growth of controls (cells incubated with media only). IC50 values were determined as the drug concentrations at which cell growth was inhibited 50% as compared to controls. Experiments were repeated as lest three times. Experiments were also conducted with continuous drug exposures lasting for 3 and 4 days with results similar to the 5 day results.

Data set [2] deals with HT (Diffuse large B cell). The data set is described as above. The data set is classed as cell-based. As to conditions: Homo sapiens, 120 h, 5 day drug exposure. How it is done:
as §1

Another data set relates to Raji (Burkitt's). The data set is described as above. Format: cell-based. As to conditions: Homo sapiens, 120 h, 5 day drug exposure. Here is the method: as §1
Data set [3] deals with Hs445 (Hodgkin's disease). The data set is described as above. The data set is classed as cell-based. As to conditions: Homo sapiens, Hs 445, 120 h, 5 day drug exposure. Here is the method: as §1
In a further data set the test system is SKI-DLBCL-1 xenograft. The data set can be described thus: Second combination xenograft experiment (FIG. 5). Format: in vivo, SCID beige mice. As to conditions: PDX and Gem at one-quarter of the MTD (15 mg/kg); MTX (60 mg/kg) alone, Ara-C (300 mg/kg) alone or both. Here is the method:
The same type of test was repeated to assess the in vivo efficacy of using combination therapies. […] Schedule dependent treatment was also determined by pretreating animals with PDX or MTX followed 24 hours later with Gem or Ara-C, respectively. One cohort of animals was treated with Gem followed by PDX. In all cases, the control animals received intraperitoneal injections of normal saline.
Tumor bearing mice were assessed for weight loss and tumor volume at least twice weekly for the duration of the experiment. The data are expressed as the average tumor volume (mm3) per group as a function of time. Tumors were assessed by measuring the two largest perpendicular axes (l=length, w=width) with standard calipers. Tumor volume was calculated using the formula 4/3 πr^3 where r=(l+w)/4. Animals were sacrificed when one dimensional tumor diameter exceeded 2.0 cm, or after loss of more than 10% of their body weight in accordance with institutional guidelines. Animals were housed in standard shoe box cages in temperature and humidity constant rooms on a 12 hour light and dark cycle. Food and water were supplied ad libitum. Animals were maintained in core animal facilities under an institute approved animal protocol.

The conditions of data set [4]: cited from earlier work; for weight loss at the MTD: nude mice.
Data set [5] deals with SKI-DLCL-1 (Diffuse large B Cell). In words: Growth inhibition in vitro, 5 day exposure (XTT or Alamar blue). The data set is classed as cell-based. Conditions: Homo sapiens, 120 h, 5 day drug exposure. How it is done:
A PDX preparation prepared in accordance with Example 1 and an MTX preparation were tested for cytotoxicity against a panel of five human lymphoma cell lines. Experiments were performed as described previously. (Sirotnak et al., Cancer Chemother. […] Colorimetric dye (XTT or Alamar blue) was added for an addition period of time (XTT dye, 6 hours, Alamar blue, 24 hours). Each plate was then read on an automated plate reader at 590 nm. The percentage of inhibition was calculated as growth of cells exposed to drug divided by growth of controls (cells incubated with media only). […] Experiments were repeated as lest three times.
(In general: Tetrazolium assays rely on reduction of a dye to a coloured formazan, in cell work by metabolically active cells.)

The subject of data set [6] is subcutaneous tumors of SKI. The data set can be described thus: Preliminary combination xenograft experiment. Format: in vivo, irradiated NOD-SCID mice. As to conditions: for tumor response (in words): MTX 40 mg/kg (MTD), Ara-C 300 mg/kg (MTD), or combination at one-half the MTD. Here is the method:
Given the experience that SKI-DLCL-1 is the most PDX resistant line in the panel, it was selected for these in vivo synergy experiments. […] All animals were treated with the maximum tolerated dose (MTD) of each drug, save the combination studies.

Another data set relates to SKI-DLBCL-1 xenografts. In words: TUNEL immunohistochemical staining for apoptosis in xenografts. As to conditions: day 21; MTX 40 mg/kg or PDX 60 mg/kg on days 0, 3, 7 and 10. The data set is classed as in vivo, mice. How it is done:
Immunohistochemical staining for apoptosis as measured by terminal deoxynucleotide transferase-mediated nick end-labeling (TUNEL) was performed on SKI-DLBCL-1 xenografts from mice sacrificed at day 21 following initiation of antifolate therapy. Mice received four doses of saline, MTX (40 mg/kg) or PDX (60 mg/kg) on days 0, 3, 7 and 10.

Data set [7] has as its system human RL (transformed follicular) non-Hodgkin's lymphoma xenografts. The data set can be described thus: Subcutaneous lymphoma xenograft treatment. Format: in vivo. From the text: (§2) In order to study the effects of PDX on lymphoma growth in vivo, subcutaneous transplantation models in NOD/SCID mice were generated using three established human lymphoma cell line representative of aggressive transformed FL (RL) and de novo extranodal DLBCL (HT; SKI-DLCL-1) histologies. Six to eight week old non-obsese diabetic severe combined immunodeficient (NOD/SCID) mice (Jackson Laboratories, Bar Harbor, Me.) were sub-lethally irradiated with […] from a gamma source and inoculated with 10×10^6 lymphoma cells via a subcutaneous route. When tumor volumes approached 100 mm^3, mice were divided into three groups, averaging 3-8 mice per group. Mice were treated with normal saline or the maximum tolerated dose (MTD) of MTX (40 mg/kg) or PDX (60 mg/kg) via an intraperitoneal route twice weekly for two weeks (four total doses). […] (Sirotnak, et al., Cancer Chemother. Pharmacol. 12: 26-30 (1984); Sirotnak et al., Cancer Chemother. Pharmacol. 42: 313-318 (1998).
(§3) Engraftment rates in this experiment ranged from 80 to 90%. Palpable tumors formed under the skin approximately 7-10 days after inoculation and were readily measurable with calipers. Mice with subcutaneous lymphoma growths survived an average of 40-50 days after inoculation.

In data set [8] the test system is human SKI-DLCL-1 (de novo diffuse large B cell) non-Hodgkin's lymphoma xenografts. The data set can be described thus: Subcutaneous lymphoma xenograft treatment. Conditions: SKI-DLCL-1 xenografts. Format: in vivo.
From the text: as §2, §3

The test system of data set [9] is human HT (diffuse large B cell) non-Hodgkin's lymphoma xenografts. In words: Subcutaneous lymphoma xenograft treatment. Format: in vivo.
From the text: as §2, §3

A further data set has as its system SKI-DLBCL cells. The data set can be described thus: Cell cycle analysis (propidium iodide binding). The data set is classed as cell-based, human. Conditions: result in words.

We go through four compounds from US20080058280A1, “Treatment of Lymphoma Using 10-Propargyl-10-Deazaaminopterin and Gemcitabine” (SLOAN-KETTERING INSTITUTE FOR CANCER RESEARCH, priority 2004, published 2008).

The term IC50 denotes the concentration that gives 50% inhibition. A low value points to greater potency in that assay.

Method for SKI-DLBCL cells: All drugs were assayed at equimolar concentrations (i.e. 1 nM). The incubation conditions were modeled after the in vitro cytotoxicity experiments. Single agent drugs or combinations of all drugs studied without schedule considerations were incubated for 72 hours, while drugs that were studied in some schedule were introduced in a 24+48 incubation scheme (i.e. drug B added 24 hours following drug A, then incubated for an additional 48 hours for a total incubation time of 72 hours). […] In addition to monitoring apoptosis, cell cycle kinetic analyses were also performed on all treated cells based the propidium iodide binding.

As to `CN(Cc1cnc2nc(N)nc(N)c2n1)c1ccc(C(=O)N[C@@H](CCC(=O)O)C(=O)O)cc1` [MTX, methotrexate], the IC50 in data set [1] turned out to be 210 ± 40 nM; in data set [2], 35 ± 5 nM; with Raji (Burkitt's), 16 ± 0.8 nM; in [3], 32 ± 2.2 nM; in data set [5], 48 ± 2.5 nM. For the same compound, the “tumor response (in words)” value is “sacrificed early due to excessive tumor growth” in the data set on SKI-DLBCL-1 xenograft; “modest growth delay compared to the control” in data set [6]; “small reductions in growth an no regressions” in [7] (MTX 40 mg/kg); “small reductions in growth an no regressions” in data set [8] (MTX 40 mg/kg); “modest growth delay as compared to controls, there was no tumor regression” in [9] (MTX 40 mg/kg). Also, the “weight loss at the MTD” value in [4] was “less than 10%”. The “apoptotic cells in tumor tissue (TUNEL)” value in the data set with SKI-DLBCL-1 xenografts is given as “little or no evidence of apoptotic cells”.
In the case of `C#CCC(Cc1cnc2nc(N)nc(N)c2n1)c1ccc(C(=O)N[C@@H](CCC(=O)O)C(=O)O)cc1` (stereo partly shown) [PDX, 10-Propargyl-10-deazaminopterin], in data set [4] (intraperitoneal, twice weekly, four total doses), the “maximum tolerated dose (MTD)” value is 60 mg/kg. The “weight loss at the MTD” value in [4] is recorded as “less than 10%”. Moreover, the “tumor regrowth, % of initial tumor volumes” value in [6] (PDX or Gem at 60 mg/kg, by day 44) was found to be 739%. In the data set on SKI-DLBCL-1 xenografts, the “apoptotic cells in tumor tissue (TUNEL)” value is reported as “a high level of apoptotic cells”. Further, the “Complete Regression (no/total)” value is listed as 5/9 in data set [7] (MTX 40 mg/kg, PDX 60 mg/kg); 3/10 in data set [8] (MTX 40 mg/kg, PDX 60 mg/kg); 8/9 in [9] (MTX 40 mg/kg, PDX 60 mg/kg). In addition, the “Tumor Regression (%)” value in data set [7] (PDX 60 mg/kg) was 56%; in [8] (PDX 60 mg/kg) it was 54%; in data set [9] (PDX 60 mg/kg, average tumor regression), 99%. Further, the “decrease of tumor volumes from initial volumes” value in [7] (PDX 60 mg/kg) and in data set [8] (PDX 60 mg/kg) was “at least 50%” throughout. Besides, the “mice with tumor regressions” value in data set [7] (PDX 60 mg/kg, 5 of 9 mice) came out at 57%. In data set [8] (PDX 60 mg/kg, 3 of 10 mice), the “mice with tumor regressions / complete remissions” value was 30%. Moreover, the “Avg Tumor Diameter (mm ± SE)” value in [9] (MTX 40 mg/kg, PDX 60 mg/kg, at the nadir of tumor regression) was found to be 0.5 mm. For the same compound, in data set [9] (PDX 60 mg/kg, 8 of 9), the “mice with complete tumor regression” value was 89%.
For the compound `Nc1ccn([C@@H]2O[C@H](CO)[C@@H](O)C2(F)F)c(=O)n1` [Gem, 1-(2′,2′-difluoro-β-D-arabinofuranosyl) cytosine], the “fraction of cells in S-phase” value with SKI-DLBCL cells was “fewest”.
On to `Nc1ccn([C@@H]2O[C@H](CO)[C@@H](O)[C@@H]2O)c(=O)n1` [Ara-C, cytarabine], for which the entries for the “tumor response (in words)” value (with SKI-DLBCL-1 xenograft; in data set [6]) were “sacrificed early due to excessive tumor growth” and “modest growth delay compared to the control”, respectively.
